In ChEMBL document CHEMBL4354781, “Drug-resistance in Mycobacterium tuberculosis: where we stand” (2019):
Values after ≈ are worked out from the molar mass of the structure shown.

What was measured:
Type in all cases: functional
[1] = system: Mycobacterium tuberculosis; assay: Antitubercular activity against Mycobacterium tuberculosis by radiometric analysis
[2] = system: Mycobacterium tuberculosis; assay: Antitubercular activity against Mycobacterium tuberculosis H37Rv ATCC 35820
[3] = system: Mycobacterium tuberculosis; assay: Antitubercular activity against Mycobacterium tuberculosis Kurono ATCC 35812
[4] = system: Mycobacterium tuberculosis; assay: Antitubercular activity against Mycobacterium tuberculosis H37Rv ATCC 25618
[5] = system: Mycobacterium tuberculosis; assay: Antitubercular activity against Mycobacterium tuberculosis H37Rv ATCC 35822
[6] = system: Mycobacterium tuberculosis; assay: Antitubercular activity against Mycobacterium tuberculosis H37Rv ATCC 35837
[7] = system: Mycobacterium tuberculosis; assay: Antitubercular activity against Mycobacterium tuberculosis H37Rv ATCC 35838
[8] = system: Mycobacterium tuberculosis; assay: Antitubercular activity against Mycobacterium tuberculosis XDR

**Q.** For `O=[N+]([O-])c1cn2c(n1)OC[C@@H](OCc1ccc(OC(F)(F)F)cc1)C2` [PRETOMANID], which MIC [1] is on record?
**A.** 0.015 to 0.25 µg/mL (≈ 0.0418 to 0.696 µM)

**Q.** What does the source list for `C[C@]1(COc2ccc(N3CCC(Oc4ccc(OC(F)(F)F)cc4)CC3)cc2)Cn2cc([N+](=O)[O-])nc2O1` [DELAMANID]?
**A.** MIC [2]: 0.006 to 0.024 µg/mL (≈ 0.0112 to 0.0449 µM); MIC [3]: 0.006 to 0.024 µg/mL (≈ 0.0112 to 0.0449 µM); MIC [4]: 0.006 to 0.024 µg/mL (≈ 0.0112 to 0.0449 µM); MIC [5]: 0.006 to 0.024 µg/mL (≈ 0.0112 to 0.0449 µM); MIC [6]: 0.006 to 0.024 µg/mL (≈ 0.0112 to 0.0449 µM); MIC [7]: 0.006 to 0.024 µg/mL (≈ 0.0112 to 0.0449 µM)

**Q.** Which MIC [8] does the source give for `CC(=O)NC[C@H]1CN(c2ccc(N3CCOCC3)c(F)c2)C(=O)O1` [LINEZOLID] here?
**A.** 0.125 to 0.5 µg/mL (≈ 0.371 to 1.48 µM)
